Laboratory results as given in US20250268852A1, “MICROBIOTA IMPROVING AGENT” (SANYO CHEMICAL INDUSTRIES, LTD., priority 2022, published 2025).
Peptide text beside a SMILES is read from it.

Experiment: Amount of magnesium captured per 100 g of substance (X), ion-selective electrode method
Format: physicochemical
Protocol: As for the substance (X), the amount of magnesium captured per 100 g of the substance (X) is preferably 1 g or more, as measured by the ion-selective electrode method.
When the substance (X) is a hydrate, 100 g of the substance (X) refers to 100 g by weight excluding hydration water.
The measurement by the ion-selective electrode method is performed using 2 mM of the substance (X) relative to a 1 mM aqueous MgCl2 solution having a temperature of 20° C. and a pH of 7.
Each substance (X) was subjected to measurement of the amount (g) of magnesium captured per 100 g of the substance (X) by the ion-selective electrode method as follows. For (X-5), the amount of magnesium captured per 100 g of Na2WO4 contained in (X-5) was measured. For (X-16), the amount of magnesium captured per 100 g of adenosine triphosphate disodium contained in (X-16) was measured.
The measurement by the ion-selective electrode method was performed using 2 mM of the substance (X) relative to a 1 mM aqueous MgCl2 solution having a temperature of 20° C. and a pH of 7.

Row | SMILES | Amount of magnesium (g) captured per 100 g of substance (X) [g]
1 | O=P([O-])([O-])OP(=O)([O-])OP(=O)([O-])[O-].[Na+].[Na+].[Na+].[Na+].[Na+] [Example X-1, Pentasodium triphosphate] | 5
2 | CC(=O)CC(C)=O [Example X-2, Acetylacetone] | 3
3 | CC(=O)CC(=O)c1ccccc1 [Example X-3, Benzoylacetone] | 3
4 | CC(=O)CCC(=O)O [Example X-4, Levulinic acid] | 2
5 | O.O.[Na+].[Na+].[O]=[W](=[O])([O-])[O-] [Example X-5, Sodium tungstate dihydrate] | 2
6 | NCC(=O)NCC(=O)O [Example X-6, Glycylglycine] (H-Gly-Gly-OH) | 2
7 | N[C@@H](CCC(=O)O)C(=O)O [Example X-7, Glutamic acid] | 2
8 | O=C(O)CC(O)C(=O)O (stereo not shown) [Example X-8, Malic acid] | 15
9 | O=C(O)CC(O)(CC(=O)O)C(=O)O [Example X-9, Citric acid] | 20
10 | O=C(O)[C@H](O)[C@@H](O)[C@H](O)[C@H](O)CO [Example X-10, Gluconic acid] | 30
11 | O=C[C@H](O)[C@@H](O)[C@H](O)[C@H](O)C(=O)O [Example X-11, Glucuronic acid] | 15
12 | O=C(O)CN(CCN(CC(=O)O)CC(=O)O)CC(=O)O [Example X-12, Ethylenediaminetetraacetic acid] | 10
13 | O=C(O)CNCC(=O)O [Example X-13, Iminodiacetic acid] | 8
14 | Oc1cccc2cccnc12 [Example X-14, 8-Quinolinol] | 2
15 | O=C(O)C(O)C(O)C(=O)O (stereo not shown) [Example X-15, Tartaric acid] | 9
16 | Nc1ncnc2c1ncn2[C@@H]1O[C@H](COP(=O)([O-])OP(=O)([O-])OP(=O)(O)O)[C@@H](O)[C@H]1O.O.O.O.[Na+].[Na+] [Example X-16, Adenosine triphosphate disodium trihydrate] | 5
